Common to all, as to assay type: cell-based
Experiment [1] concerns the target T1, RAF proto-oncogene serine/threonine-protein kinase (Homo sapiens, UniProt P04049). The experiment can be described thus: Inhibition of RAF in human A-375 cells assessed as ERK phosphorylation at Thr202/Tyr204 residue incubated for 6 hrs by HTRF assay.
For experiment [2], the target named is T1, RAF proto-oncogene serine/threonine-protein kinase. As to the kind of experiment: Inhibition of RAF in human WM3629 cells assessed as ERK phosphorylation at Thr202/Tyr204 residue incubated for 6 hrs by HTRF assay. For orientation: In TR-FRET formats the signal depends on donor and acceptor labels being close together.
Experiment [3] deals with Protein cereblon/Serine/threonine-protein kinase B-raf (Homo sapiens, UniProt P15056+Q96SW2, G466V). The experiment can be described thus: Protac activity at E3 ubiquitin-protein ligase/BRAF G466V mutant in human T-REx-293 cells assessed as BRAF degradation incubated for 24 hrs by plate reader assay.
Experiment [4] deals with Protein cereblon/Serine/threonine-protein kinase B-raf (Homo sapiens), P15056+Q96SW2 [V600E]. The experiment can be described thus: Protac activity at E3 ubiquitin-protein ligase/BRAF V600E mutant in human T-REx-293 cells assessed as maximal BRAF degradation incubated for 24 hrs by plate reader assay.
The target in experiment [5] is Protein cereblon/Serine/threonine-protein kinase B-raf (Homo sapiens, UniProt P15056+Q96SW2, V600E). As to the kind of experiment: Protac activity at E3 ubiquitin-protein ligase/BRAF V600E mutant in human T-REx-293 cells assessed as BRAF degradation incubated for 24 hrs by plate reader assay.
The subject of experiment [6] is Protein cereblon/Serine/threonine-protein kinase B-raf (Homo sapiens), P15056+Q96SW2 [G466V]. The experiment can be described thus: Protac activity at E3 ubiquitin-protein ligase/BRAF G466V mutant in human T-REx-293 cells assessed as maximal BRAF degradation incubated for 24 hrs by plate reader assay.

T1 sequence (P04049 whole entry): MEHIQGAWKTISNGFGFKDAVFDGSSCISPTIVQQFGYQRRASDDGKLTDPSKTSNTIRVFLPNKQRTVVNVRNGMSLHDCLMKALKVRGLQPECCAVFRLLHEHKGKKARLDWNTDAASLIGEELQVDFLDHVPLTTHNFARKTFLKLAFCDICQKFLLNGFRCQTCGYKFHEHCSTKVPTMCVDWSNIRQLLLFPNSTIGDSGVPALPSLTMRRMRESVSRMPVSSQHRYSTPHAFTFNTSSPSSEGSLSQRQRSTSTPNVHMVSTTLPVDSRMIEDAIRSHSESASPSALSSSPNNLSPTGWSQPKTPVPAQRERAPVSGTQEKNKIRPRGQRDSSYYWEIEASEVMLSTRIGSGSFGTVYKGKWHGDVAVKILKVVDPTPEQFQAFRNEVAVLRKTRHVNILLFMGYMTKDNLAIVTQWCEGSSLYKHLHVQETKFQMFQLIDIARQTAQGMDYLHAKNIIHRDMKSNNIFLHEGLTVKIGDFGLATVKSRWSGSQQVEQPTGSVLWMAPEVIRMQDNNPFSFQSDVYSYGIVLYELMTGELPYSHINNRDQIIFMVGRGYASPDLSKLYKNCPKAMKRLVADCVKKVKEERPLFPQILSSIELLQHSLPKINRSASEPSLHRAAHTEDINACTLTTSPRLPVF
Chain of Protein cereblon/Serine/threonine-protein kinase B-raf (Homo sapiens, UniProt P15056+Q96SW2, V600E) (P15056 2-766 V600E limits assumed, stated change not applied): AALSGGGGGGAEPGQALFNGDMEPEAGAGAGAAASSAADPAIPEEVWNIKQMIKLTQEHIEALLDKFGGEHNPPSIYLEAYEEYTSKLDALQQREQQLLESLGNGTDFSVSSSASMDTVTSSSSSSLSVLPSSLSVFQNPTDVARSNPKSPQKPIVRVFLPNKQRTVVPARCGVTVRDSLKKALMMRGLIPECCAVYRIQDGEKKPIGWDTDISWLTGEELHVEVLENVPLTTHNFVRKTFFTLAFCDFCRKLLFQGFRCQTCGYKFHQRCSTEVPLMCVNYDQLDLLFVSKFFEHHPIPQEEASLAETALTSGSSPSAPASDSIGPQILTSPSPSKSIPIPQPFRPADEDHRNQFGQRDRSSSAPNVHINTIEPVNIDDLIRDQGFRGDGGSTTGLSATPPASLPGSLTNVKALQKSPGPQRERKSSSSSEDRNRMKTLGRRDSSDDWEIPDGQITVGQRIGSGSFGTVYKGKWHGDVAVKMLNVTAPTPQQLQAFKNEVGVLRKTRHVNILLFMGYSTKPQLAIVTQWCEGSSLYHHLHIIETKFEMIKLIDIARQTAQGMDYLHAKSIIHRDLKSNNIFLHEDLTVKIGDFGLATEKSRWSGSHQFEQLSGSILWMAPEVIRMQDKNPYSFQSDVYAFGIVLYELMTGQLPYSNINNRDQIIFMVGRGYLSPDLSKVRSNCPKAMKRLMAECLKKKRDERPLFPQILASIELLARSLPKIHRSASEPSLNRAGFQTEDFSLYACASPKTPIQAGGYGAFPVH
Chain of Protein cereblon/Serine/threonine-protein kinase B-raf (Homo sapiens, UniProt P15056+Q96SW2, V600E) (Q96SW2 whole entry, stated change not applied): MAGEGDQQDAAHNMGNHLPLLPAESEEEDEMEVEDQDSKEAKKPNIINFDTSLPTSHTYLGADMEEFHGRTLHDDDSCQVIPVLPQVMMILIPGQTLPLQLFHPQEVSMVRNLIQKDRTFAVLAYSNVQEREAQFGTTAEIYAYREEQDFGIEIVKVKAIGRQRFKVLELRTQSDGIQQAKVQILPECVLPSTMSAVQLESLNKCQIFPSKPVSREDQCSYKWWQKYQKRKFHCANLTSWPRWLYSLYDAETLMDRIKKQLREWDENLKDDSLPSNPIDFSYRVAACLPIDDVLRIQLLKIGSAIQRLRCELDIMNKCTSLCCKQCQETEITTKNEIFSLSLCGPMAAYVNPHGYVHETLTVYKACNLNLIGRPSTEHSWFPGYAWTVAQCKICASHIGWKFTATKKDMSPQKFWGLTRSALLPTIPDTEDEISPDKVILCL

In general, IC50 refers to the midpoint of a concentration-inhibition curve. As to `Cc1ncc(NC(=O)N2CC[C@@H](CC(F)(F)F)C2)cc1-c1cnc(OCCN2CCN(c3ccc4c(c3)C(=O)N(C3CCC(=O)NC3=O)C4=O)CC2)c(N2CCOCC2)c1` (some centres not stated), the IC50 is 1000 nM in experiment [1] and 10 nM in experiment [2].
What is called DC50 is the concentration giving 50% degradation. In general, Emax refers to the size of the effect at its maximum, as opposed to the concentration needed. Turning to `O=C1CCC(N2Cc3cc(N4CCC(CN5CC6(CCN(c7ncc(-c8cnc9[nH]cc(C(=O)c%10c(F)ccc(NS(=O)(=O)N%11CC[C@@H](F)C%11)c%10F)c9c8)cn7)C6)C5)CC4)ccc3C2=O)C(=O)N1` (some centres not stated), the DC50 in experiment [3] is 1 nM; in experiment [5] it was at most 5 nM. The results for the Emax in experiment [4] and in experiment [6] were 35% and above 70%, respectively.
Turning to `Cc1ccc(NC(=O)N2CC[C@@H](CC(F)(F)F)C2)cc1-c1cnc(OCCN2CCN(c3ccc4c(c3)C(=O)N(C3CCC(=O)NC3=O)C4=O)CC2)c(N2CCOCC2)c1` (some centres not stated), the 50% inhibitory concentration (IC50) in experiment [1] stood at 100 nM; in experiment [2] it was 10 nM.
`COc1cc(N2CCC(CN3CCC4(CC3)CCN(c3ccc(-c5cnc6[nH]cc(C(=O)c7c(F)ccc(NS(=O)(=O)N8CC[C@@H](F)C8)c7F)c6c5)cc3)CC4)CC2)cc2c1C(=O)N(C1CCC(=O)NC1=O)C2` (some centres not stated): the DC50 in experiment [3] is 1 nM; in experiment [5], at most 5 nM. Besides, the Emax in experiment [4] and in experiment [6] was 35% throughout.

For the origin of these results see ChEMBL document CHEMBL5131550, “Application of Rapidly Accelerating Fibrosarcoma Protein Degraders in Drug Discovery” (ACS Med Chem Lett, 2022).
